Experiments:
[1] = test system: arbre bronchial de rats Wistar; test: Bronchosecretolytic activity: pulmonary excretion of fluorescein (Mawatari); assay type: in vivo; conditions: rats Wistar, 200 mg/Kg
Excerpt: L'activité bronchosécrétolytique de l'acétylsalicylate de 2(o-méthoxy-phénoxy)éthanol a été évaluée en comparaison avec celle du gaïacoléthanol, sur la base de la mesure des variations de la quantité d'indicateur (fluorescéine) trouvée dans l'arbre bronchial de rats Wistar, recueillie au moyen d'un système de lavage standardisé, après injection parentérale de l'indicateur, et mesurée au moyen d'un spectrofluorométre, suivant la méthode décrite par H.Mawatari ("Expérimental studies on the expectorant action of several drugs", Kagoshima Daigakeu Igakeu Zasshi, volume 27, page 561, 1976). Les résultats de l'élaboration statistique des épreuves sont recueillis dans le suivant tableau 4,dans lequel l' excrétion pulmonaire de fluorescéine est exprimée en microgrammes ± la déviation standard, soit dans la quantité totale trouvée, soit dans la quantité pour-cent rapportée à 100 g de poids corporel des rats. Entre parenthèses sont indiquées les valeurs de l'augmentation pour-cent par rapport aux contrôles. Pour les autres valeurs est valable ce qui été précisé en relation au Tableau 1.

[2] = Solubility (characteristics of the substance); assay type: physicochemical
[3] = test system: convulsions abdominales (writhings) induites dans le souris par une injection intrapéritonéale d'acide acétique; test: Acetic acid writhing test (analgesic activity, Koster and Anderson); assay type: in vivo; conditions: souris, 60 minutes après l'administration; for Frequence writhings: ± déviation standard
Excerpt: L'activité analgésique de l'acétylsalicylate de 2(o-méthoxy-phénoxy)éthanol a été évaluée en comparaison avec celle de l'acide acétylsalicylique sur la base de la fréquence des convulsions abdominales (writhings) induites dans le souris par une injection intrapéritonéale d'acide acétique, suivant la technique décrite par Koster et Anderson (Fed. Proc., volume 18, page 412, 1959). Les résultats de l'élaboration statistique des épreuves sont indiqués dans le suivant Tableau 3, dans lequel la fréquence des convulsions est indiquée comme nombre de convulsions par minute ± la déviation standard, et a été mesurée 60 minutes après l'administration; pour les autres valeurs est valable ce qui a été spécifié en relation avec le Tableau 1.

[4] = test system: température corporelle, augmentée par l'injection intraveineuse de nucléinate de sodium dans le lapin; test: Antipyretic activity: rise in body temperature induced by intravenous sodium nucleinate; assay type: in vivo; conditions: for Augmentation temperature corporelle - °C ± d.s. après 1 heure: 1 heure après l'administration; for Augmentation temperature corporelle - °C ± d.s. après 2 heures: 2 heures après l'administration; for Augmentation temperature corporelle - °C ± d.s. après 3 heures: 3 heures après l'administration; for Augmentation temperature corporelle - °C ± d.s. après 4 heures: 4 heures après l'administration
Excerpt: L'activité antipyrétique de l'acétylsalicylate de 2(o-méthoxy-phénoxy)éthanol a été evaluée en comparaison avec celle de l'acide acétylsalicylique suivant la méthode, universellement employée, de la mesure de la variation de la température corporelle, augmentée par 1' injection intraveineuse de nucléinate de sodium dans le lapin. Les résultats de l'élaboration statistique des épreuves sont indiqués dans le suivant Tableau 2, dans lequel l'augmentation de la température corporelle est indiquée en °C ± la déviation standard, et a été mesurée 1, 2, 3 et 4 heures après l'administration; pour les autres valeurs est valable ce qui a été spécifié en relation avec le Tableau 1.

[5] = test system: oedème induit par carraghénine injectée dans la patte de rats; test: Carrageenan-induced rat paw oedema (antiphlogistic activity, Winter et al); assay type: in vivo; conditions: voie orale; for Volume de l'oedème - ml ± d.s. après 3 heures: 3 heures après le traitement oedémigène; for Volume de l'oedème - ml ± d.s. après 6 heures: 6 heures après le traitement oedémigène
Excerpt: L'activité antiphlogistique de l'acétylsalicylate de 2(o-méthoxy-phénoxy) éthanol a été évaluée en comparaison avec celle de l'acide acétylsalicylique sur la base de la variation de volume de l'oedème induit par carraghénine injectée dans la patte de rats, suivant la technique décrite par Winter et al (Proc. Soc. Exp. Biol. Med., volume III, page 544, 1962). Les résultats de l'élaboration des épreuves sont indiqués dans le Tableau 1, dans lequel le volume de l'oedème est indiqué en millilitres z la déviation standard, et il a été mesuré 3, 4,5 et 6 heures après le traitement oedémigène; la dose de substance est indiquée en milligrammes de substance administrée par voie orale pour chaque kilogramme de poids corporel des rats; les valeurs marquées par * correspondent à une probabilité d'erreur p < 0,05, les valeurs marquées correspondent à une probabilité d'erreur p < 0,01, calculées sur les valeurs des contrôles, et les valeurs indiquées entre parenthèses indiquent l'inhibition en pour-cent calculée par rapport aux contrôles.

[6] = Acute oral toxicity (DL50, Lichtfield et al); parameters: species or system rats; conditions: rat, in vivo
Excerpt: La toxicité aiguë de l'acétylsalicylate de 2(o-méthoxy--phénoxy)éthanol a été évaluée en comparaison avec celle de l'acide acétylsalicylique et exprimée comme dose DL50 (la dose qui provoque la mort du 50% des animaux traités) en mg/kg de poids corporel des rats auxquels la substance a été administrée par voie orale. Les résultats de l'élaboration statistique suivant la méthode décrite par J.T.Lichtfield et al (J. Pharm. Exp. Ther., volume 96, page 99, 1949) donnent les suivantes valeurs de la dose toxique DLSO et, entre parenthèses, de son intervalle fiducial (valeurs minimale et maximale relevées): • acide acétylsalicylique 1400 (1207 1580) • acétylsalicylate de • 2(o-méthoxy-phénoxy)éthanol 2934 (2696 3098)

COc1ccccc1OCCOC(=O)c1ccccc1OC(C)=O [acétylsalicylate de 2(o-méthoxy-phénoxy)éthanol]
augmentation pour-cent par rapport aux contrôles (excrétion pulmonaire de fluorescéine, quantité totale) [1]: +90,8 pour-cent
Excrétion pulmonaire de fluorescéine Quantité pour-cent µg/100 g ([1]; rapportée à 100 g de poids corporel, ± déviation standard): 0,230 ± 0,042 µg/100 g
Excrétion pulmonaire de fluorescéine Quantité totale µg ([1]; ± déviation standard): 0,481 ± 0,068 µg
solubilité en solvants organiques ([2]; benzène, chloroforme, diméthylcétone, éthanol, éther éthylique, isopropanol et autres solvants organiques): soluble
solubilité dans l'eau ([2]; eau): practiquement insoluble
inhibition at 100 mg/kg ([3]; 1 h, 100 mg/Kg, read-out: % inhibition): 33%
inhibition at 200 mg/kg ([3]; 1 h, 200 mg/Kg, read-out: % inhibition): 49%
Frequence writhings ([3]; 100 mg/Kg): **19,5 ± 5,4 convulsions par minute
Frequence writhings ([3]; 200 mg/Kg): **14,88 ± 6,8 convulsions par minute
Augmentation temperature corporelle - °C ± d.s. après 1 heure ([4]; 100 mg/Kg): 1,15 ± 0,19 °C
inhibition en pour-cent calculée par rapport aux contrôles, après 2 heures ([4]; 100 mg/Kg): 22 pour-cent
Augmentation temperature corporelle - °C ± d.s. après 2 heures ([4]; 100 mg/Kg): 1,13 ± 0,2 °C
inhibition en pour-cent calculée par rapport aux contrôles, après 3 heures ([4]; 100 mg/Kg): 43 pour-cent
Augmentation temperature corporelle - °C ± d.s. après 3 heures ([4]; 100 mg/Kg): 0,94 ± 0,11 °C
inhibition en pour-cent calculée par rapport aux contrôles, après 4 heures ([4]; 100 mg/Kg): 56 pour-cent
Augmentation temperature corporelle - °C ± d.s. après 4 heures ([4]; 100 mg/Kg): 0,33 ± 0,07 °C
Augmentation temperature corporelle - °C ± d.s. après 1 heure ([4]; 200 mg/Kg): 1,1 ± 0,2 °C
inhibition en pour-cent calculée par rapport aux contrôles, après 2 heures ([4]; 200 mg/Kg): 24 pour-cent
Augmentation temperature corporelle - °C ± d.s. après 2 heures ([4]; 200 mg/Kg): 1,1 ± 0,17 °C
inhibition en pour-cent calculée par rapport aux contrôles, après 3 heures ([4]; 200 mg/Kg): 47 pour-cent
Augmentation temperature corporelle - °C ± d.s. après 3 heures ([4]; 200 mg/Kg): 0,87 ± 0,15 °C
inhibition en pour-cent calculée par rapport aux contrôles, après 4 heures ([4]; 200 mg/Kg): 62 pour-cent
Augmentation temperature corporelle - °C ± d.s. après 4 heures ([4]; 200 mg/Kg): 0,28 ± 0,05 °C
inhibition en pour-cent calculée par rapport aux contrôles, après 3 heures ([5]; 100 mg/Kg): 44,0 pour-cent
Volume de l'oedème - ml ± d.s. après 3 heures ([5]; 100 mg/Kg): 0,380 ± 0,18 ml
inhibition en pour-cent calculée par rapport aux contrôles, après 4,5 heures ([5]; 100 mg/Kg, 4,5 heures): 45,0 pour-cent
Volume de l'oedème - ml ± d.s. après 4,5 heures ([5]; 100 mg/Kg, 4,5 heures après le traitement oedémigène): 0,333 ± 0,17 ml
inhibition en pour-cent calculée par rapport aux contrôles, après 6 heures ([5]; 100 mg/Kg): 39,0 pour-cent
Volume de l'oedème - ml ± d.s. après 6 heures ([5]; 100 mg/Kg): 0,291 ± 0,13 ml
inhibition en pour-cent calculée par rapport aux contrôles, après 3 heures ([5]; 200 mg/Kg): 70,0 pour-cent
Volume de l'oedème - ml ± d.s. après 3 heures ([5]; 200 mg/Kg): 0,20 + 0,1 ml
inhibition en pour-cent calculée par rapport aux contrôles, après 4,5 heures ([5]; 200 mg/Kg, 4,5 heures): 67,0 pour-cent
Volume de l'oedème - ml ± d.s. après 4,5 heures ([5]; 200 mg/Kg, 4,5 heures après le traitement oedémigène): 0,20 + 0,11 ml
inhibition en pour-cent calculée par rapport aux contrôles, après 6 heures ([5]; 200 mg/Kg): 65,0 pour-cent
Volume de l'oedème - ml ± d.s. après 6 heures ([5]; 200 mg/Kg): 0,16 + 0,1 ml
LD50 [6]: 2930 mg/kg

From patent publication EP0070049A1, “Derivative of acetylsalicylic acid having an analgetic, antipyretic, antiphlogistic and bronchosecretolytic activity” (UNIONE CHIMICA MEDICAMENTI- DIFME-S.p.A., priority 1981, dated 1983)
